Where “and” joins values, the source holds several entries; their conditions need not be identical. Identical values can stand only once.
Tests used:
[1] = test system: IL-6 production in LPS-treated macrophages; test: Inhibition of LPS-induced IL-6 production in macrophages (ELISA); type: cell-based; settings: LPS 1 μg/mL
Procedure: 5. Effect of Inhibiting IL-6 Production The macrophages (American Type Culture Collections, Rockville, Mass., USA) cultured in a 24-well plate were pretreated with LPS (1 μg/mL) for 1 hour, treated with a extract (50 μg/mL), 20 mM 5-ASA (50 μg/mL) and 20 μM dexamethasone, and cultured for 24 hours, and the supernatant was used for the experiment. First, capture antibody of IL-6 was added into a 96-well ELISA plate and allowed to react overnight. The plate was washed 6 times with 1×PBS (PBS-T) containing 0.05% Tween-20, and blocked with 1× assay diluent solution containing 2% BSA at room temperature for 1 hour. […] The plate was again was washed 6 times with 1×PBS-T, detection antibody was added thereto, and allowed to react at room temperature for 2 hours. The plate was again was washed 6 times with 1×PBS-T, avidin-HRP solution was added thereto, and allowed to react at room temperature for 30 minutes. The plate was again was washed 6 times with 1×PBS-T, a TMB substrate solution was added thereto and allowed to react at room temperature for final 30 minutes, and a reaction stopping solution (1 M H3PO4) was added thereto to stop the reaction. With respect to the levels of reactions of the plate, the absorbance was measured at 450 nm using a microplate reader (TECAN, Gr, Austria).

[2] = test system: TNF-α production in LPS-treated macrophages; test: Inhibition of LPS-induced TNF-α production in macrophages (ELISA); type: cell-based; settings: Macrophage, LPS 1 μg/mL, read-out: Effect of inhibiting TNF-α (%)
Procedure: 4. Effect of Inhibiting TNF-α Production The macrophages (American Type Culture Collections, Rockville, Mass., USA) cultured in a 24-well plate were pretreated with LPS (1 μg/mL) for 1 hour, treated with a extract (100 μg/mL), 20 mM 5-ASA (100 μg/mL) and 20 μM dexamethasone, and cultured for 24 hours, and the supernatant of cell was used for the experiment. First, capture antibody of TNF-α was added into a 96-well ELISA plate and allowed to react overnight. The plate was washed 6 times with 1×PBS (PBS-T) containing 0.05% Tween-20, and blocked with 1× assay diluent solution containing 2% BSA at room temperature for 1 hour. The plate was washed 6 times with 1×PBS-T and the supernatant or TNF-α standard protein was added thereto and allowed to react at room temperature for 2 hours. The plate was again was washed 6 times with 1×PBS-T, detection antibody was added thereto, and allowed to react at room temperature for 2 hours. The plate was again was washed 6 times with 1×PBS-T, avidin-HRP solution was added thereto, and allowed to react at room temperature for 30 minutes. […] With respect to the levels of reactions of the plate, the absorbance was measured at 450 nm using a microplate reader (TECAN, Gr, Austria).

[3] = test system: TNBS-induced Crohn's disease in ICR female mice; test: Amelioration of Crohn's disease in TNBS animal model; type: in vivo
Procedure: 8. Effect of Ameliorating Crohn's Disease in TNBS Animal Model To construct an experimental model of inflammatory bowel disease, 7-week old ICR female mice (25 g to 27 g) were purchased from DBL Co., Ltd. (Eumseong, Korea), and the mice were given ad libitum access to solid feeds and water and allowed to adapt to a controlled environment with constant humidity (50±10%), constant temperature (22±2° C.), and 12-hour light-dark cycle for 1 week. […] The mice were fasted for 24 hours before injection of TNBS. […] The control drug (5-ASA) and extracts were dissolved in 0.5% carboxymethyl cellulose (CMC), and orally administered once daily for 5 days. The normal control group and the colitis-induced group were orally administered with 0.5% CMC. After 5 days of oral administration, mice were fasted until the next day and sacrificed. Each of their colons was excised from the cecum to the region immediately before the anus, and the length and external appearance of the excised colon were examined to determine the degree of weight loss, constipation, and intestinal edema, and the results were scored according to the criteria.

myeloperoxidase (MPO) = test: Myeloperoxidase (MPO) activity in colon tissue, TNBS animal model; type: in vivo; settings: TNBS mice, 200 mg/kg
Procedure: 6. Effect of Inhibiting Oxidative Stress Through Measurement of Myeloperoxidase (MPO) Activity
200 μL of lysis buffer was added to 100 mg of colon tissue collected at the time of autopsy and homogenized and the supernatant obtained by centrifugation at 10,000 rpm for 20 minutes was used. First, capture antibody of MPO was added into a 96-well ELISA plate and allowed to react overnight. The plate was washed 6 times with 1×PBS (PBS-T) containing 0.05% Tween-20, and blocked with 1× assay diluent solution containing 2% BSA at room temperature for 1 hour. […] With respect to the levels of reactions of the plate, the absorbance was measured at 450 nm using a microplate reader (TECAN, Gr, Austria).
To construct an experimental model of inflammatory bowel disease, 7-week old ICR female mice (25 g to 27 g) were purchased from DBL Co., Ltd. (Eumseong, Korea), and the mice were given ad libitum access to solid feeds and water and allowed to adapt to a controlled environment with constant humidity (50±10%), constant temperature (22±2° C.), and 12-hour light-dark cycle for 1 week. […] Each of their colons was excised from the cecum to the region immediately before the anus, and the length and external appearance of the excised colon were examined to determine the degree of weight loss, constipation, and intestinal edema, and the results were scored according to the criteria.

[4] = test system: U937 cell adhesion to the HT-29 intestinal epithelial cells; test: Inhibition of monocyte (U937) adhesion to TNF-α-stimulated intestinal epithelial cells (HT-29); type: cell-based, human; settings: 5-ASA 20 mM (positive control), TNF-α 100 ng/mL, 24 h
Procedure: 3. Effect of Inhibiting Monocyte Adhesion Ability in Intestinal Epithelial Cells Human intestinal epithelial cell line HT-29 cells (American Type Culture Collections, Rockville, Mass., USA) and human monocyte cell line U937 cells (ATCC, Rockville, Mass., USA) were cultured in RPMI 1640 containing fetal bovine serum (FBS) and 1% penicillin/streptomycin, and the cell line was maintained under the environment of 95% air and 5% CO2 at 37° C. […] The HT-29 cells (2×10^6 cells/well), which were cultured in a 48-well plate for 24 hours, were simultaneously treated with a extract (100 μg/mL) while treating with TNF-α (100 ng/mL), and cultured for 24 hours. In particular, 20 mM 5-aminosalicylic acid (5-ASA) was used as the positive control. Then, HT-29 cells were co-cultured along with U937 cells (5×10^5 cells/well), which were labeled with BCECF/AM at 37° C. for 30 minutes. Unattached U937 cells were removed and washed twice with PBS. The HT-29 cells to which U937 cells were attached were dissolved using 0.1% Triton X-100 which was dissolved in 0.1 mol/L Tris. The fluorescence of these lysates was measured using the luminance at 485 nm and 520 nm using a microplate reader (TECAN, Gr, Austria).

[5] = test system: dextran sodium sulfate (DSS)-induced colitis in C57BL/6 female mice; test: Amelioration of colitis in DSS animal model; type: in vivo; set-up: DAI (disease activity index): scale not given here; Colon Length: unit not given here
Procedure: 7. Effect of Ameliorating Colitis in DSS Animal Model To construct an experimental model of inflammatory bowel disease, 6-week old C57BL/6 female mice (17 g to 19 g) were purchased from DBL Co., Ltd. (Eumseong, Korea), and the mice were given ad libitum access to solid feeds and water and allowed to adapt to a controlled environment with constant humidity (50%), constant temperature (22° C.), and 12-hour light-dark cycle for 1 week. […] The control drug (5-ASA) and extracts were dissolved in 0.5% carboxymethyl cellulose (CMC), and then orally administered once daily for 7 days along with 3% dextran sodium sulfate (DSS), and the normal control group and the colitis-induced group were orally administered with 0.5% CMC. The colitis-induced group, the control drug-treated group, and the extract-treated group were given ad libitum access to 3% DSS for 1 week, and the normal control group was given ad libitum access to water. Then, the mice were sacrificed on the 8th day, and each of their colons was excised from the cecum to the region immediately before the anus, and the length and external appearance of the excised colon were examined to determine the degree of weight loss, diarrhea, and […], and the results were scored according to the criteria.

[6] = test system: NO production in HT-29 cells; test: Inhibition of NO production in HT-29 cells (Griess); type: cell-based, human; settings: 48 h
Procedure: 2. Effect of Inhibition of NO Production Human intestinal epithelial cell line HT-29 cells (American Type Culture Collections, Rockville, Mass., USA) were cultured in Dulbecco's Modified Eagle's Medium (DMEM) along with 10% Fatal bovine serum (FBS), 1% Antibiotic-Antimycotic (GIBCO, Cat No. 15240-062) in 100 mm/60.1 cm^2 culture dish at 37° C., 5% CO2 conditions. […] The supernatant of cell was collected and used as a sample for the test. The test analysis was performed using the Total NO/Nitrite/Nitrate ELISA kit (R&D systems, Cat. #KGE001) according to the manufacturer's manual. Briefly, the test was performed in the following sequence: the cell culture which was grown after treatment with the sample was dispensed into a 96-well plate in an amount of 50 μL/well, treated with Griess Reagent, reacted at room temperature for 10 minutes, and the absorbance was measured at 540 nm.

[7] = 200 mg/kg oral once daily 5 days, control drug 5-ASA 200 mg/kg, listed as Control drug-treated Group
[8] = 200 mg/kg oral once daily 5 days, control drug 5-ASA 200 mg/kg, listed as control-drug treated group
[9] = oral once daily 7 days, control drug 5-ASA 200 mg/kg, listed as Control drug-treated Group

With C[C@@H]1C[C@H]2[C@@H]3CCC4=CC(=O)C=C[C@]4(C)[C@@]3(F)[C@@H](O)C[C@]2(C)[C@@]1(O)C(=O)CO [Dexamethasone, dexamethasone] as the compound, how does the inhibition at 20 µM ([1]; Macrophage, dexamethasone 20 μM, read-out: Effect of inhibiting IL-6 (%)) read?
The inhibition at 20 µM was 49.9%.

And the inhibition at 20 µM ([2]; dexamethasone 20 μM)?
Its inhibition at 20 µM is 38.5%.

How did the “reduction of weight of colon per colon length compared to the Crohn's disease-induced group” value ([3]; 200 mg/kg) turn out when Nc1ccc(O)c(C(=O)O)c1 [5-ASA, 5-aminosalicylic acid] was run?
The value was “almost no difference”.

What about the “Colon Length (cm)” value ([3]; 200 mg/kg oral once daily 5 days, control drug 5-ASA 200 mg/kg) of the same compound?
Its value is 8.33 ± 0.22 cm.

What about the “Colon Length” value [3, 7] of the same compound?
Its value is 8.28 and 8.33 ± 0.22.

What about the “DAI (disease activity index)” value [3, 7] of the same compound?
Its value is 10.56 ± 1.40 and 8.20.

And the “Weight per Area (colon weight per colon length)” value (from here on “Weight per Area”) [3, 7]?
The value was 67.67 ± 9.30 and 46.55.

What about the “Colon Length” value [3, 8] of the same compound?
The value was 8.27.

What about the “DAI (disease activity index)” value [3, 8] of the same compound?
Its value is 6.30.

What about the “Weight per Area” value [3, 8] of the same compound?
The value was 48.66.

And the “effect of improvement of disease activity index compared to the Crohn's disease-induced group” value ([3]; 200 mg/kg, listed as Control drug-treated Group, 200 mg/kg)?
The value was 7% and 9%.

And the “difference in colon weight per colon length compared to the Crohn's disease-induced group” value ([3]; 5-ASA 200 mg/kg)?
The value was “about 6.5 mg/cm”.

What about the “Effect of inhibiting IL-6 (%)” value ([1]; 5-ASA 20 mM) of the same compound?
Its value is 67.68% and 50.98%.

And the “Effect of inhibiting IL-6 (%)” value ([1]; 5-ASA 20 mM, listed as 5ASA)?
The value was 49.89% and 49.35%.

What about the inhibition at 20000 µM ([1]; Macrophage, 5-ASA 20 mM, read-out: Effect of inhibiting IL-6 (%)) of the same compound?
The inhibition at 20000 µM was 52.8%.

And the “decrease of MPO activity compared to the Crohn's disease-induced group” value (myeloperoxidase (MPO))?
The value was 15%.

What about the “Effect of inhibiting adhesion (%)” value [4] of the same compound?
Its value is 24.48%.

What about the inhibition at 20000 µM ([4]; Homo sapiens, read-out: Effect of inhibiting adhesion (%)) of the same compound?
The inhibition at 20000 µM was 18.9%.

And the “effect of improvement of disease activity index compared to the colitis-induced group” value [5]?
The value was 45%.

What about the “increase of the colon length compared to the colitis-induced group” value [5] of the same compound?
The value was 3.6%.

What about the “recovery of intestinal mucosa (immunostaining of intestinal mucosal tissues)” value [5] of the same compound?
The value was “partially restored”.

And the “Colon Length” value [5, 9]?
Its value is 5.42 and 5.77 and 5.45 and 5.31 ± 0.16.

And the “Colon Length (cm)” value [5, 9]?
Its value is 5.42 cm and 5.31 ± 0.16 cm.

What about the “DAI (disease activity index)” value [5, 9] of the same compound?
The value was 4.50 and 7.48 and 6.88 ± 0.44 and 5.75 and 5.33.

And the “Weight per Area” value [5, 9]?
Its value is 30.66 ± 0.76 and 32.52 and 31.42.

What about the inhibition at 20000 µM ([2]; 5-ASA 20 mM) of the same compound?
Its inhibition at 20000 µM is 11.1%.

And the “inhibitory effect against NO production” value [6]?
The value was 37%.
